Target: Non-receptor tyrosine-protein kinase TYK2 (Homo sapiens, UniProt P29597)
Assay: Inhibition of 10-His tagged recombinant TYK2 JH2 domain (575 to 876 residues) (unknown origin) incubated for 60 mins by TR-FRET assay

Sequence of Non-receptor tyrosine-protein kinase TYK2 (P29597 whole entry, the tested form may be a part): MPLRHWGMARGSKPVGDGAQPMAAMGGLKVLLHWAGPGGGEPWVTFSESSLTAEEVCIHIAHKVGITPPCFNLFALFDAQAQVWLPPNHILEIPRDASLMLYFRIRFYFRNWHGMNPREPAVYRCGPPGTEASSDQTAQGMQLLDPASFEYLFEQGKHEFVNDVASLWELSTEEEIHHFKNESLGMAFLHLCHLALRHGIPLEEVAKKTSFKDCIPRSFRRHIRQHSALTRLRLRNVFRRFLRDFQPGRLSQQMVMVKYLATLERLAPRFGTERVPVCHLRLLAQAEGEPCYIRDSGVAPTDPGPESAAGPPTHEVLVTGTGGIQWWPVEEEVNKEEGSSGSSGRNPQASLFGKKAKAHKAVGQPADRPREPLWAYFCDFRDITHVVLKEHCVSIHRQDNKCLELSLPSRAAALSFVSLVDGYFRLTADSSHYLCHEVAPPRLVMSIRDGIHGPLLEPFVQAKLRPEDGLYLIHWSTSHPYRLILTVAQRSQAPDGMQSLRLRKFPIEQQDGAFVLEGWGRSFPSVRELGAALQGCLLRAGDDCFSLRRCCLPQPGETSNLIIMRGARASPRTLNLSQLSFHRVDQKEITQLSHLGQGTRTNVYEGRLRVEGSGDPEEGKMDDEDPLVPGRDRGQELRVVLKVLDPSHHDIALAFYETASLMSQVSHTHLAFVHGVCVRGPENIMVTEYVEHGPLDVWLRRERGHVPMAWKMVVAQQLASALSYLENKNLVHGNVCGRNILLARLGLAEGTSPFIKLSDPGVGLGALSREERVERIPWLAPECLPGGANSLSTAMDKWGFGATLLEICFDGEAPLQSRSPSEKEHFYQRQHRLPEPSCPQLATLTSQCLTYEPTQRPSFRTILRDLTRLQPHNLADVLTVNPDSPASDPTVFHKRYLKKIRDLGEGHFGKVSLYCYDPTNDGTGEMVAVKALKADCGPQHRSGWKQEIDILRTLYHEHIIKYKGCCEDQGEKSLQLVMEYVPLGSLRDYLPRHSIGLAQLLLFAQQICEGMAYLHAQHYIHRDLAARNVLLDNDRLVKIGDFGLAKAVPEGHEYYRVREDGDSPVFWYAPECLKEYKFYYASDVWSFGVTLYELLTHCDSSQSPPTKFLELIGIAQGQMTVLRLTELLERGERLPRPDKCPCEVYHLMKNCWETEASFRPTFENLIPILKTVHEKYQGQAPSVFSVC

IC50, ≤ 10 nM:
CC(=O)Nc1cc2c(cn1)C1(CC1)CN2c1cc(-c2ncn(C)n2)nc(C(C)(F)F)n1
CC(=O)Nc1cc2c(cn1)C1(CC1)CN2c1cc(NC2CCSC2)nc(C(C)(F)F)n1 (stereo unspecified)
CC(=O)Nc1cc2c(cn1)C1(CC1)CN2c1cc(C)nc(C2CCC2)n1
CC(=O)Nc1cc2c(cn1)C1(CC1)CN2c1cccc(S(C)(=O)=O)n1
CSc1nc(C)cc(N2CC3(CC3)c3cnc(NC(C)=O)cc32)n1
CC(=O)Nc1cc2c(cn1)C1(CC1)CN2c1nc(C2CCOC2)c(C)s1 (stereo unspecified)

Reference: ChEMBL document CHEMBL5532728, “Novel Tyrosine Kinase 2 Inhibitors for Treating Autoimmune and Inflammatory Diseases” (ACS Med Chem Lett, 2024)
